pIC50: −log10 of the molar value.
target: CXCR3 (Macaca fascicularis, UniProt A0A2K5UV19); assay: functional cellular assay measuring calcium flux in CXCR3 transfected cells (block of CXCR3/IP-10 interaction); assay type: cell-based, Cyno; conditions: IP-10 induced intracellular calcium flux; Cyno-CHO cells stably expressing recombinant CXCR3 and G-alpha-16; IP-10 at EC80; read-out: IC50
Procedure: Compounds are assessed for the ability to block the interaction of CXCR3 and IP-10 in a functional cellular assay measuring calcium flux in CXCR3 transfected cells.
Cyno-CHO cells, stably expressing recombinant CXCR3 and G-alpha-16 are grown in F12 medium (Mediatech #45000-360) supplemented with 10% (V/V) FBS (Mediatech #35-01500), 1% Geneticin (Invitrogen #10131-027) and 0.2% Zeocin (Invitrogen #R250-05). The cells are spun down and re-suspended in growth media to a concentration of […]. 25 microL of cell suspension is added to each well of a BD-384-well TC treated plate, providing 12,000 cells/well. The plate is incubated at 37° C./5% CO2 overnight. On the day of the assay, the plates are removed, the media is flicked out and 25 microL of Ca-4 dye in assay buffer (HBSS, 10 mM HEPES ph 7.4), containing 2 mM probenacid is added to each well. The cell assay plates are then incubated at 37° C./5% CO2 for one hour.
Test compounds are dissolved in DMSO and diluted to 1.045 mM in DMSO. Just prior to assay, 2.75 microL of appropriately diluted test compound are added to each well of a 384 well plate containing 45 microL of HBSS buffer. After mixing, 5 microL of diluted compound are added to each well of the cell assay plate for a final assay concentration of 10 microM. The plate is incubated at room temperature for 15 min. 10 microL of IP-10 stock solution in HBSS (4× EC80 concentration) are added to each well of the cell assay plate except those cells reserved as blank wells containing buffer only. Intracellular calcium flux is recorded on the HAMAMTSU FDSS6000, using excitation at 480 nm and emission at 540 nm. Data are analyzed using Activity Base software.
In general, the preferred potency range (IC50) of compounds in the above assay is between 1 nM to 3 μM, and the most preferred potency range is 1 nM to 200 nM.

Sequence of CXCR3 (A0A2K5UV19 entry or part of it): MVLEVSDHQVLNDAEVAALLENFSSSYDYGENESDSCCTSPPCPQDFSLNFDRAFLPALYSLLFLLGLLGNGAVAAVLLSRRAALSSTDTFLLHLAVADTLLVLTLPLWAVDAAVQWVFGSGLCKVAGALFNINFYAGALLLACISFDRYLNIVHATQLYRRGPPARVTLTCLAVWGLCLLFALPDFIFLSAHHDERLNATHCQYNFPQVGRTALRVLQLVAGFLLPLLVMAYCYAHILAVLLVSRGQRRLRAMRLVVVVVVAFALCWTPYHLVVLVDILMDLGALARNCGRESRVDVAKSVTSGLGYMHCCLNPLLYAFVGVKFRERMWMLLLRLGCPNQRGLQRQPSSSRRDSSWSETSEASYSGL

Compared with `Cc1cc(C)n(CC(=O)N2CCN(c3ccc(F)cc3-c3cnc(N4CCCC4)nc3)CC2)n1` [2-(3,5-dimethyl-1H-pyrazol-1-yl)-1-(4-{4-fluoro-2-[2-(pyrrolidin-1-yl)pyrimidin-5-yl]phenyl}piperazin-1-yl)ethanone], `Cc1cc(C)n(CC(=O)N2CCN(c3ccccc3-c3cnc(N4CCCC4)nc3)CC2)n1` [2-(3,5-Dimethyl-pyrazol-1-yl)-1-{4-[2-(2-pyrrolidin-1-yl-pyrimidin-5-yl)-phenyl]-piperazin-1-yl}-ethanone] is 0.35 log units higher in pIC50: 7.80 for the first, 8.15 for the second.

`CSc1ncc(-c2ccccc2N2CCN(C(=O)Cn3ccc4cccnc43)CC2)cn1` [1-{4-[2-(2-Methylsulfanyl-pyrimidin-5-yl)-phenyl]-piperazin-1-yl}-2-pyrrolo[2,3-b]pyridin-1-yl-ethanone] and `COc1ncc(-c2ccccc2N2CCN(C(=O)Cn3ccc4cccnc43)CC2)cn1` [1-{4-[2-(2-Methoxy-pyrimidin-5-yl)-phenyl]-piperazin-1-yl}-2-pyrrolo[2,3-b]pyridin-1-yl-ethanone] are within 0.2 log units of each other in pIC50: 8.40 for the first, 8.22 for the second.

`COc1ncc(-c2ccccc2N2CCN(C(=O)Cn3c(=O)n(C)c4ccccc43)CC2)cn1` [1-(2-{4-[2-(2-Methoxy-pyrimidin-5-yl)-phenyl]-piperazin-1-yl}-2-oxo-ethyl)-3-methyl-1,3-dihydro-benzoimidazol-2-one] and `COc1ncc(-c2cc(F)ccc2N2CCN(C(=O)Cn3ccc4ccncc43)CC2)cn1` [1-{4-[4-fluoro-2-(2-methoxypyrimidin-5-yl)phenyl]piperazin-1-yl}-2-(1H-pyrrolo[2,3-c]pyridin-1-yl)ethanone] are within 0.2 log units of each other in pIC50: 7.96 for the first, 7.89 for the second.

`CSc1ncc(-c2cc(Cl)ccc2N2CCN(C(=O)Cn3nc(C)cc3C)CC2)cn1` [1-{4-[4-Chloro-2-(2-methylsulfanyl-pyrimidin-5-yl)-phenyl]-piperazin-1-yl}-2-(3,5-dimethyl-pyrazol-1-yl)-ethanone] and `CSc1ncc(-c2ccccc2N2CCN(C(=O)Cn3nc(C)cc3C)CC2)cn1` [2-(3,5-Dimethyl-pyrazol-1-yl)-1-{4-[2-(2-methylsulfanyl-pyrimidin-5-yl)-phenyl]-piperazin-1-yl}-ethanone] are within 0.2 log units of each other in pIC50: 8.15 for the first, 8.00 for the second.

`C[C@H]1CN(c2ccc(F)cc2C(=O)Nc2nc3c(s2)CN(C)CC3)CCN1C(=O)Cn1cnc2cccnc21` [5-fluoro-2-[(3S)-4-(3H-imidazo[4,5-b]pyridin-3-ylacetyl)-3-methylpiperazin-1-yl]-N-(5-methyl-4,5,6,7-tetrahydro[1,3]thiazolo[5,4-c]pyridin-2-yl)benzamide] and `Cc1cc(C)n(CC(=O)N2CCN(c3ccc(F)cc3C(=O)Nc3nc4c(s3)CN(C)CC4)C[C@H]2C)n1` [2-{(3R)-4-[(3,5-dimethyl-1H-pyrazol-1-yl)acetyl]-3-methylpiperazin-1-yl}-5-fluoro-N-(5-methyl-4,5,6,7-tetrahydro[1,3]thiazolo[5,4-c]pyridin-2-yl)benzamide] are the same in pIC50: 7.82 for the first, 7.82 for the second.

`O=C(Cn1ccc2cccnc21)N1CCC(c2ccccc2-c2cnc(N3CCOCC3)nc2)CC1` [1-{4-[2-(2-Morpholin-4-yl-pyrimidin-5-yl)-phenyl]-piperidin-1-yl}-2-pyrrolo[2,3-b]pyridin-1-yl-ethanone] and `N#Cc1ncc(-c2ccccc2N2CCN(C(=O)Cn3ccc4cccnc43)CC2)cn1` [5-{2-[4-(2-Pyrrolo[2,3-b]pyridin-1-yl-acetyl)-piperazin-1-yl]-phenyl}-pyrimidine-2-carbonitrile] are within 0.2 log units of each other in pIC50: 7.96 for the first, 7.89 for the second.

`CC1CN(c2ccccc2-c2cnc(N3CCC(O)CC3)nc2)CCN1C(=O)CN1Cc2ccccc2C1=O` (centres unmarked) [2-[2-(4-{2-[2-(4-hydroxypiperidin-1-yl)pyrimidin-5-yl]phenyl}-2-methylpiperazin-1-yl)-2-oxoethyl]-2,3-dihydro-1H-isoindol-1-one] and `Cc1cc(C)n(CC(=O)N2CCN(c3ccccc3-c3cnc(N4CCC(O)CC4)nc3)CC2C)n1` (centres unmarked) [2-(3,5-dimethyl-1H-pyrazol-1-yl)-1-(4-{2-[2-(4-hydroxypiperidin-1-yl)pyrimidin-5-yl]phenyl}-2-methylpiperazin-1-yl)ethanone] are within 0.2 log units of each other in pIC50: 8.00 for the first, 7.89 for the second.

`CC1CN(c2ccccc2-c2cnc(N3CCC(S(C)(=O)=O)CC3)nc2)CCN1C(=O)Cn1ccc2cccnc21` (centres unmarked) [1-[2-methyl-4-(2-{2-[4-(methylsulfonyl)piperidin-1-yl]pyrimidin-5-yl}phenyl)piperazin-1-yl]-2-(1H-pyrrolo[2,3-b]pyridin-1-yl)ethanone] and `CS(=O)(=O)C1CCN(c2ncc(-c3cc(F)ccc3N3CCN(C(=O)Cn4cnc5cccnc54)CC3)cn2)CC1` [1-[4-(4-fluoro-2-{2-[4-(methylsulfonyl)piperidin-1-yl]pyrimidin-5-yl}phenyl)piperazin-1-yl]-2-(3H-imidazo[4,5-b]pyridin-3-yl)ethanone] are within 0.2 log units of each other in pIC50: 8.05 for the first, 8.00 for the second.

`Cc1cc(C)n(CC(=O)N2CCN(c3ccccc3-c3cnc(N4CCC(O)CC4)nc3)CC2)n1` [2-(3,5-Dimethyl-pyrazol-1-yl)-1-(4-{2-[2-(4-hydroxy-piperidin-1-yl)-pyrimidin-5-yl]-phenyl}-piperazin-1-yl)-ethanone] and `Cc1cc(C)n(CC(=O)N2CCN(c3ccccc3-c3cnc(N4CCC(S(C)(=O)=O)CC4)nc3)CC2)n1` [2-(3,5-Dimethyl-pyrazol-1-yl)-1-(4-{2-[2-(4-methanesulfonyl-piperidin-1-yl)-pyrimidin-5-yl]-phenyl}-piperazin-1-yl)-ethanone] are within 0.2 log units of each other in pIC50: 8.15 for the first, 8.22 for the second.

`CC1CN(c2ccccc2-c2cnc(S(C)(=O)=O)nc2)CCN1C(=O)Cn1c(=O)[nH]c2ccccc21` (centres unmarked) [1-[2-(2-methyl-4-{2-[2-(methylsulfonyl)pyrimidin-5-yl]phenyl}piperazin-1-yl)-2-oxoethyl]-1,3-dihydro-2H-benzimidazol-2-one] and `CS(=O)(=O)c1ncc(-c2cc(F)ccc2N2CCN(C(=O)Cn3ccc4cccnc43)CC2)cn1` [1-(4-{4-fluoro-2-[2-(methylsulfonyl)pyrimidin-5-yl]phenyl}piperazin-1-yl)-2-(1H-pyrrolo[2,3-b]pyridin-1-yl)ethanone] are within 0.2 log units of each other in pIC50: 7.20 for the first, 7.17 for the second.

`COc1cc(NC(=O)c2cc(F)ccc2N2CCN(C(=O)CN3Cc4ccccc4C3=O)[C@H](C)C2)ccn1` [5-fluoro-N-(2-methoxypyridin-4-yl)-2-{(3R)-3-methyl-4-[(1-oxo-1,3-dihydro-2H-isoindol-2-yl)acetyl]piperazin-1-yl}benzamide] and `COc1cc(NC(=O)c2cc(F)ccc2N2CCN(C(=O)Cn3cnc4cccnc43)[C@H](C)C2)ccn1` [5-fluoro-2-[(3R)-4-(3H-imidazo[4,5-b]pyridin-3-ylacetyl)-3-methylpiperazin-1-yl]-N-(2-methoxypyridin-4-yl)benzamide] are the same in pIC50: 8.15 for the first, 8.15 for the second.

Going from `COc1cccc(-c2ccccc2N2CCN(C(=O)Cn3nc(C)cc3C)CC2)c1` [2-(3,5-Dimethyl-pyrazol-1-yl)-1-[4-(3′-methoxy-biphenyl-2-yl)-piperazin-1-yl]-ethanone] to `CNc1ncc(-c2ccccc2N2CCN(C(=O)Cn3nc(C)cc3C)CC2)cn1` [2-(3,5-Dimethyl-pyrazol-1-yl)-1-{4-[2-(2-methylamino-pyrimidin-5-yl)-phenyl]-piperazin-1-yl}-ethanone], the pIC50 rises from 7.25 to 7.47 (0.22 log units).

`COc1cc(NC(=O)c2cc(F)ccc2N2CCN(C(=O)CN(C)C(=O)c3ncoc3C)[C@@H](C)C2)ccn1` [N-{2-[(2S)-4-{4-fluoro-2-[(2-methoxypyridin-4-yl)carbamoyl]phenyl}-2-methylpiperazin-1-yl]-2-oxoethyl}-N,5-dimethyl-1,3-oxazole-4-carboxamide] and `C[C@H]1CN(c2ccc(F)cc2C(=O)Nc2nc3c(s2)CN(C)CC3)CCN1C(=O)CN1Cc2ccccc2C1=O` [5-fluoro-2-{(3S)-3-methyl-4-[(1-oxo-1,3-dihydro-2H-isoindol-2-yl)acetyl]piperazin-1-yl}-N-(5-methyl-4,5,6,7-tetrahydro[1,3]thiazolo[5,4-c]pyridin-2-yl)benzamide] are within 0.2 log units of each other in pIC50: 7.96 for the first, 7.82 for the second.

Going from `Cc1cc(C(F)(F)F)nn1CC(=O)N1CCN(c2ccccc2-c2ccc(C#N)nc2)CC1` [5-(2-{4-[2-(5-Methyl-3-trifluoromethyl-pyrazol-1-yl)-acetyl]-piperazin-1-yl}-phenyl)-pyridine-2-carbonitrile] to `Cc1cc(C)n(CC(=O)N2CCN(c3ccc(C(F)(F)F)cc3-c3cnc(N4CCC(S(C)(=O)=O)CC4)nc3)CC2C)n1` (centres unmarked) [2-(3,5-dimethyl-1H-pyrazol-1-yl)-1-{2-methyl-4-[2-{2-[4-(methylsulfonyl)piperidin-1-yl]pyrimidin-5-yl}-4-(trifluoromethyl)phenyl]piperazin-1-yl}ethanone], the pIC50 rises from 7.15 to 8.15 (1.00 log units). The second is the more potent here.

For `CN1CCN(c2ncc(-c3cc(F)ccc3N3CCN(C(=O)Cn4ccc5cccnc54)CC3)cn2)CC1` [1-(4-{4-fluoro-2-[2-(4-methylpiperazin-1-yl)pyrimidin-5-yl]phenyl}piperazin-1-yl)-2-(1H-pyrrolo[2,3-b]pyridin-1-yl)ethanone], the pIC50 was 7.70.

Reference: patent US8450317B2, “CXCR3 receptor antagonists” (Boehringer Ingelheim International GmbH, priority 2009, dated 2013)
